Data as given in the supplement of paper PMC5908809.

Assays:
[1] = test system: normal NK cells expanded with K562-aAPC; assay: drug sensitivity score (DSS) (DSS units); higher = more sensitive; extreme values may be limits of the assay; conditions: 72 h; IL-2 2.5 ng/mL
Protocol: (§1)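 Drug sensitivity and resistance testing on K562-aAPC-expanded normal NK cells: 5 concentrations (10-fold steps over a 10,000-fold range), 72 h at 37 °C, viability by CellTiter-Glo normalised to DMSO and benzethonium chloride controls; DSS from the fitted curve.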

NK-92 (IL-2 2.5 ng/mL) [2] = assay: as above; conditions: 72 h
NK-YS (IL-2 2.5 ng/mL) [3] = assay: as above; conditions: 72 h
[4] = test system: normal primary NK cells, pool 3 (3 donors) (IL-2 2.5 ng/mL); assay: as above; conditions: 72 h
[5] = test system: normal primary NK cells, pool 1 (3 donors), resting (IL-2 0 ng/mL); assay: as above; conditions: 72 h
KHYG-1 (IL-2 2.5 ng/mL) [6] = assay: as above; conditions: 72 h
[7] = test system: normal primary NK cells, pool 1 (3 donors) (IL-2 2.5 ng/mL); assay: as above; conditions: 72 h
[8] = test system: normal primary NK cells, pool 2 (3 donors) (IL-2 2.5 ng/mL); assay: as above; conditions: 72 h
SNK-6 (IL-2 2.5 ng/mL) [9] = assay: as above; conditions: 72 h
KAI3 (IL-2 2.5 ng/mL) [10] = assay: as above; conditions: 72 h
NKL (IL-2 2.5 ng/mL) [11] = assay: as above; conditions: 72 h
IMC-1 (IL-2 20 ng/mL) [12] = assay: as above; conditions: 72 h
YT (IL-2 2.5 ng/mL) [13] = assay: as above; conditions: 72 h
DERL-7 (IL-2 2.5 ng/mL) [14] = assay: as above; conditions: 72 h
NK-92 (IL-2 2.5 ng/mL) [15] = assay: percent inhibition of viability; higher = more inhibition; conditions: 72 h
NK-YS (IL-2 2.5 ng/mL) [16] = assay: as above; conditions: 72 h
[17] = test system: normal primary NK cells, pool 3 (3 donors) (IL-2 2.5 ng/mL); assay: as above; conditions: 72 h
[18] = test system: normal primary NK cells, pool 1 (3 donors), resting (IL-2 0 ng/mL); assay: as above; conditions: 72 h
KHYG-1 (IL-2 2.5 ng/mL) [19] = assay: as above; conditions: 72 h
[20] = test system: normal primary NK cells, pool 1 (3 donors) (IL-2 2.5 ng/mL); assay: as above; conditions: 72 h
[21] = test system: normal primary NK cells, pool 2 (3 donors) (IL-2 2.5 ng/mL); assay: as above; conditions: 72 h
SNK-6 (IL-2 2.5 ng/mL) [22] = assay: as above; conditions: 72 h
KAI3 (IL-2 2.5 ng/mL) [23] = assay: as above; conditions: 72 h
NKL (IL-2 2.5 ng/mL) [24] = assay: as above; conditions: 72 h
IMC-1 (IL-2 20 ng/mL) [25] = assay: as above; conditions: 72 h
YT (IL-2 2.5 ng/mL) [26] = assay: as above; conditions: 72 h
DERL-7 (IL-2 2.5 ng/mL) [27] = assay: as above; conditions: 72 h
[28] = test system: normal NK cells expanded with K562-aAPC; assay: as above; conditions: 72 h, IL-2 2.5 ng/mL
Protocol: as §1

N#CC1(c2ccc(NC(=O)c3cccnc3NCc3ccncc3)cc2)CCCC1 [Apatinib] (max concentration tested 10000 nM)
Conditions	drug sensitivity score
DERL-7 (IL-2 2.5 ng/mL) [14]	0
IMC-1 (IL-2 20 ng/mL) [12]	0
KAI3 (IL-2 2.5 ng/mL) [10]	0.17
KHYG-1 (IL-2 2.5 ng/mL) [6]	0.9
NK-92 (IL-2 2.5 ng/mL) [2]	4.58
NK-YS (IL-2 2.5 ng/mL) [3]	0.26
NKL (IL-2 2.5 ng/mL) [11]	0
SNK-6 (IL-2 2.5 ng/mL) [9]	0
YT (IL-2 2.5 ng/mL) [13]	0
[1]	0
[4]	0
[5]	2.45
[7]	0
[8]	0

percent inhibition of viability [%]
Conditions	1 nM	10 nM	100 nM	1000 nM	10000 nM
DERL-7 (IL-2 2.5 ng/mL) [27]	-0.33	-0.49	-2.76	-4.82	1.97
IMC-1 (IL-2 20 ng/mL) [25]	-6.4	-0.28	-6.01	0.8	2.01
KAI3 (IL-2 2.5 ng/mL) [23]	3.83	2.76	6.74	10.3	12.3
KHYG-1 (IL-2 2.5 ng/mL) [19]	4.44	2.43	2.62	6.69	19
NK-92 (IL-2 2.5 ng/mL) [15]	-3.67	-7.24	2.24	10.8	52.7
NK-YS (IL-2 2.5 ng/mL) [16]	-1	2.11	4.05	9.52	12.6
NKL (IL-2 2.5 ng/mL) [24]	-16.2	-14.6	-14.8	-14.5	-12.3
SNK-6 (IL-2 2.5 ng/mL) [22]	21	12.9	7.35	12.6	28.4
YT (IL-2 2.5 ng/mL) [26]	-0.29	0.42	2.63	7.54	7.83
[17]	-6.46	-8.45	-1.68	-7.82	1.12
[18]	-2.35	4.05	8.46	11.4	31.2
[20]	-14.6	-10.1	-4.55	-2.69	6.98
[21]	-4.33	-2.31	-5.54	-1.25	-5.6
[28]	-1.56	-5.13	-0.99	0.76	2.66

Cc1c(CN2CCN(C(=O)[C@H](C)O)CC2)sc2c(N3CCOCC3)nc(-c3cnc(N)nc3)nc12 [Apitolisib] (max concentration tested 10000 nM)
Conditions	drug sensitivity score
DERL-7 (IL-2 2.5 ng/mL) [14]	18
IMC-1 (IL-2 20 ng/mL) [12]	0
KAI3 (IL-2 2.5 ng/mL) [10]	9.5
KHYG-1 (IL-2 2.5 ng/mL) [6]	7.06
NK-92 (IL-2 2.5 ng/mL) [2]	11.3
NK-YS (IL-2 2.5 ng/mL) [3]	10.2
NKL (IL-2 2.5 ng/mL) [11]	10.3
SNK-6 (IL-2 2.5 ng/mL) [9]	6.63
YT (IL-2 2.5 ng/mL) [13]	9.84
[1]	10
[4]	4.24
[5]	4.44
[7]	8.91
[8]	6.81

percent inhibition of viability [%]
Conditions	1 nM	10 nM	100 nM	1000 nM	10000 nM
DERL-7 (IL-2 2.5 ng/mL) [27]	3.04	1.57	29.2	78.4	92.4
IMC-1 (IL-2 20 ng/mL) [25]	-4.85	-5.41	-12.6	-55.2	8.81
KAI3 (IL-2 2.5 ng/mL) [23]	0.17	-2.02	17.9	39.6	65.3
KHYG-1 (IL-2 2.5 ng/mL) [19]	-2.58	-0.95	-1.53	18	76.4
NK-92 (IL-2 2.5 ng/mL) [15]	16	7.33	22.5	45.1	57.8
NK-YS (IL-2 2.5 ng/mL) [16]	-2.41	1.63	8.5	47.2	73.8
NKL (IL-2 2.5 ng/mL) [24]	-12	-7.01	2.26	53.8	65.7
SNK-6 (IL-2 2.5 ng/mL) [22]	13.8	9.78	15.2	21.3	45.5
YT (IL-2 2.5 ng/mL) [26]	0.06	0.22	4.58	47.5	71
[17]	-10.7	-12.9	-5.47	6.17	59.6
[18]	-0.63	-14.4	-6.11	24.3	34.8
[20]	-11.8	-13.1	4.5	40.1	75
[21]	-13.9	-6.6	0.47	22.1	66.1
[28]	2.46	-0.12	17.4	39.8	85.8

CC(C)c1c(C(=O)Nc2ccccc2)c(-c2ccccc2)c(-c2ccc(F)cc2)n1CC[C@@H](O)C[C@@H](O)CC(=O)O [Atorvastatin] (max concentration tested 10000 nM)
Conditions	drug sensitivity score
DERL-7 (IL-2 2.5 ng/mL) [14]	4
IMC-1 (IL-2 20 ng/mL) [12]	9.38
KAI3 (IL-2 2.5 ng/mL) [10]	3.95
KHYG-1 (IL-2 2.5 ng/mL) [6]	5.76
NK-92 (IL-2 2.5 ng/mL) [2]	2.7
NK-YS (IL-2 2.5 ng/mL) [3]	14
NKL (IL-2 2.5 ng/mL) [11]	17.2
SNK-6 (IL-2 2.5 ng/mL) [9]	2.14
YT (IL-2 2.5 ng/mL) [13]	9
[1]	0.92
[4]	0
[5]	2.71
[7]	0.79
[8]	1.06

percent inhibition of viability [%]
Conditions	1 nM	10 nM	100 nM	1000 nM	10000 nM
DERL-7 (IL-2 2.5 ng/mL) [27]	-2.58	-0.16	-3.51	6.56	54.2
IMC-1 (IL-2 20 ng/mL) [25]	-2.01	0.19	4.44	25.6	99.2
KAI3 (IL-2 2.5 ng/mL) [23]	-7.62	-6.46	-2.5	3.32	63.8
KHYG-1 (IL-2 2.5 ng/mL) [19]	1.48	-0.11	9.42	7.71	81.3
NK-92 (IL-2 2.5 ng/mL) [15]	-10.9	-15.5	4.4	-6.37	58.2
NK-YS (IL-2 2.5 ng/mL) [16]	0.24	1.58	11.9	64.8	103
NKL (IL-2 2.5 ng/mL) [24]	-16	-12.1	14.8	83.8	102
SNK-6 (IL-2 2.5 ng/mL) [22]	-3.12	4.06	1.93	0.27	41.9
YT (IL-2 2.5 ng/mL) [26]	0.23	1.11	4.51	22.4	99.1
[17]	-6.89	-6.08	-9.88	-12.8	4.72
[18]	-1.6	-6.76	-4.51	2.54	45.6
[20]	-3.15	-14.1	-7.04	-6.72	27.1
[21]	-7.16	-1.31	1.87	-2.86	29.2
[28]	-5.69	-0.26	-0.77	-4.84	28.3

CC(=O)OC[C@H]1O[C@@H]([S-])[C@H](OC(C)=O)[C@@H](OC(C)=O)[C@@H]1OC(C)=O.CCP(CC)CC.[Au+] [Auranofin] (max concentration tested 2500 nM)
Conditions	drug sensitivity score
DERL-7 (IL-2 2.5 ng/mL) [14]	10.6
IMC-1 (IL-2 20 ng/mL) [12]	5.76
KAI3 (IL-2 2.5 ng/mL) [10]	3.64
KHYG-1 (IL-2 2.5 ng/mL) [6]	7.93
NK-92 (IL-2 2.5 ng/mL) [2]	5.5
NK-YS (IL-2 2.5 ng/mL) [3]	6.36
NKL (IL-2 2.5 ng/mL) [11]	11.9
SNK-6 (IL-2 2.5 ng/mL) [9]	8.77
YT (IL-2 2.5 ng/mL) [13]	5.39
[1]	10.2
[4]	17.4
[5]	23.7
[7]	19.7
[8]	16.3

percent inhibition of viability [%]
Conditions	0.25 nM	2.5 nM	25 nM	250 nM	2500 nM
DERL-7 (IL-2 2.5 ng/mL) [27]	-0.63	7.06	8.16	44.6	98.2
IMC-1 (IL-2 20 ng/mL) [25]	-3.33	-1.53	4.17	1.71	99.3
KAI3 (IL-2 2.5 ng/mL) [23]	-6.77	-2.1	-2.36	-3.59	71.4
KHYG-1 (IL-2 2.5 ng/mL) [19]	0.4	-2.1	1.71	13.8	104
NK-92 (IL-2 2.5 ng/mL) [15]	-2.57	-12.2	-2.23	-0.04	98.4
NK-YS (IL-2 2.5 ng/mL) [16]	-7.49	-6.18	-3.6	9.95	84.9
NKL (IL-2 2.5 ng/mL) [24]	-10.3	-9.31	-24.6	52.6	106
SNK-6 (IL-2 2.5 ng/mL) [22]	13.5	17.1	4.84	33.2	86
YT (IL-2 2.5 ng/mL) [26]	-4.83	-3.66	0.33	-3.85	101
[17]	-4.42	1.03	18.4	81.8	101
[18]	5.52	-6.64	48.2	92.5	99.7
[20]	-6.81	-8.13	21.6	92.8	100
[21]	-13.4	-6.97	8.16	82.7	101
[28]	1.15	-1.41	-0.3	33.5	100
